According to DBAASP:
In brackets after ≈: the same amount, converted by molar mass. Several values for one entry are separate records, joined by “and”; a condition that tells them apart may be missing. Equal values may be shown once.

Legend:
Assay in all cases: ≥ marks a high value that may be exact or a test limit, other limits are often not marked, values filed in µg/mL are converted to µM
[1] = system: Aeromonas salmonicida 97-4
[2] = system: Aeromonas salmonicida 99-1
[3] = system: Candida albicans C627
[4] = system: Escherichia coli CGSC 4908
[5] = system: Escherichia coli DC2
[6] = system: Escherichia coli UB1005
[7] = system: Pseudomonas aeruginosa K799
[8] = system: Pseudomonas aeruginosa Z61
[9] = system: Salmonella enterica serovar typhimurium MS7953s
[10] = system: Salmonella enterica subsp. enterica serovar Typhimurium ATCC 14028s
[11] = system: Staphylococcus aureus C623
[12] = system: Staphylococcus epidermidis C621
[13] = system: Aureobasidium pullulans
[14] = system: Bacillus megaterium
[15] = system: Bacillus subtilis ATCC 23857
[16] = system: Candida albicans ATCC 10231
[17] = system: Corynebacterium glutamicum ATCC 13032
[18] = system: Escherichia coli ATCC 25922
[19] = system: Micrococcus luteus
[20] = system: Pseudomonas aeruginosa ATCC 27853
[21] = system: Staphylococcus aureus ATCC 9144
[22] = system: Candida albicans KCTC 7270
[23] = system: Candida krusei CCARM 14017
[24] = system: Candida parapsilosis CCARM 14016
[25] = system: Candida tropicalis KCTC 7221
[26] = system: Fusarium oxysporum KCTC 16909
[27] = system: Fusarium verticillioides KCTC 6149
[28] = system: Burkholderia cepacia ATCC 25416
[29] = system: Pseudomonas aeruginosa H374
[30] = system: Pseudomonas aeruginosa H547
[31] = system: Pseudomonas aeruginosa H744
[32] = system: Acinetobacter baumannii LMG 01041
[33] = system: Escherichia coli LMG 15862
[34] = system: Klebsiella aerogenes LMG 02094
[35] = system: Klebsiella pneumoniae LMG 20218
[36] = system: Pseudomonas aeruginosa LMG 6395
[37] = system: Bacillus subtilis ATCC 6051
[38] = system: Escherichia coli NEB5alpha

CC[C@H](C)[C@H](NC(=O)[C@H](C)NC(=O)CNC(=O)[C@H](CCCCN)NC(=O)[C@@H](NC(=O)[C@H](CC(C)C)NC(=O)[C@H](C)NC(=O)CNC(=O)[C@H](CC(C)C)NC(=O)[C@@H](N)Cc1ccccc1)[C@@H](C)CC)C(=O)N[C@@H](Cc1cnc[nH]1)C(=O)NCC(=O)NCC(=O)N[C@@H](CCCNC(=N)N)C(=O)N[C@@H](Cc1ccccc1)C(=O)N[C@H](C(=O)N[C@@H](Cc1cnc[nH]1)C(=O)NCC(=O)N[C@@H](CCSC)C(=O)N[C@H](C(=O)N[C@@H](CCC(N)=O)C(=O)N[C@@H](CC(N)=O)C(=O)N[C@@H](Cc1cnc[nH]1)C(=O)N[C@@H](Cc1cnc[nH]1)C(C)=O)[C@@H](C)CC)[C@@H](C)CC [FLGALIKGAIHGGRFIHGMIQNHH]
MIC [1]: 24.4 µM (≈ 64 µg/mL) | MIC [2]: 24.4 µM (≈ 64 µg/mL) | MIC [3]: 24.4 µM (≈ 64 µg/mL) | MIC [4]: 24.4 µM (≈ 64 µg/mL) | MIC [5]: 24.4 µM (≈ 64 µg/mL) | MIC [6]: 24.4 µM (≈ 64 µg/mL) | MIC [7]: 24.4 µM (≈ 64 µg/mL) | MIC [8]: 12.2 µM (≈ 32 µg/mL) | MIC [9]: 24.4 µM (≈ 64 µg/mL) | MIC [10]: 24.4 µM (≈ 64 µg/mL) | MIC [11]: 12.2 µM (≈ 32 µg/mL) | MIC [12]: 12.2 µM (≈ 32 µg/mL)

C[C@H](NC(=O)[C@H](CCCCN)NC(=O)[C@H](Cc1c[nH]c2ccccc12)NC(=O)[C@H](Cc1c[nH]c2ccccc12)NC(=O)CNC(=O)[C@H](Cc1c[nH]c2ccccc12)NC(=O)[C@H](CCCCN)NC(=O)[C@H](CCCCN)NC(=O)CN)C(=O)N[C@@H](CCCCN)C(N)=O [GKKWGWWKAK]
MIC [13]: ≥ 49 µM | MIC [14]: 0.785 µM (≈ 0.999 µg/mL) | MIC [15]: 3.06 µM (≈ 3.9 µg/mL) | MIC [16]: 49 µM (≈ 62.5 µg/mL) | MIC [17]: 3.06 µM (≈ 3.9 µg/mL) | MIC [18]: 49 µM (≈ 62.5 µg/mL) | MIC [19]: ≥ 49 µM | MIC [20]: > 196 µM | MIC [21]: ≥ 196 µM

CC[C@H](C)[C@H](NC(=O)[C@H](C)NC(=O)[C@H](CCC(=O)O)NC(=O)[C@H](Cc1cnc[nH]1)NC(=O)[C@H](CCCCN)NC(=O)CNC(=O)[C@H](CCC(N)=O)NC(=O)[C@H](CCCCN)NC(=O)[C@@H](NC(=O)[C@H](CCCCN)NC(=O)[C@H](CCCCN)NC(=O)[C@H](CC(C)C)NC(=O)[C@H](C)NC(=O)[C@H](CC(N)=O)NC(=O)[C@H](CC(C)C)NC(=O)CN)C(C)C)C(=O)N[C@@H](CCCCN)C(=O)N[C@@H](CC(C)C)C(=O)N[C@H](C(=O)N[C@@H](CC(N)=O)C(=O)N[C@@H](CC(N)=O)C(=O)N[C@@H](Cc1cnc[nH]1)C(=O)N[C@H](C(=O)N[C@@H](CCC(N)=O)C(N)=O)C(C)C)[C@@H](C)CC [GLNALKKVKQGKHEAIKLINNHVQ]
MIC [22]: ≥ 64 µM | MIC [23]: ≥ 48 µM and 16 µM | MIC [24]: ≥ 64 µM | MIC [25]: 8 µM and 16 µM | MIC [26]: 6 µM and 16 µM | MIC [27]: ≥ 64 µM

CC[C@H](C)[C@H](NC(=O)[C@H](CC(C)C)NC(=O)[C@H](C)NC(=O)[C@@H]1CCCN1C(=O)[C@H](CC(C)C)NC(=O)CNC(=O)[C@@H](NC(=O)[C@@H](NC(=O)[C@H](CC(C)C)NC(=O)[C@@H](NC(=O)[C@H](CCCCN)NC(=O)[C@H](CCCCN)NC(=O)[C@H](C)NC(=O)[C@H](C)NC(=O)[C@H](CO)NC(=O)[C@@H](NC(=O)[C@H](CC(C)C)NC(=O)[C@H](CCCCN)NC(=O)[C@H](CCCCN)NC(=O)[C@@H](NC(=O)[C@H](Cc1ccccc1)NC(=O)[C@H](CO)NC(=O)[C@H](CCCCN)NC(=O)[C@H](Cc1c[nH]c2ccccc12)NC(=O)[C@@H](N)CCCCN)[C@@H](C)CC)[C@@H](C)O)C(C)C)[C@@H](C)O)[C@@H](C)O)C(=O)N[C@@H](CO)C(=O)O [KWKSFIKKLTSAAKKVLTTGLPALIS]
MIC [28]: 22.6 µM (≈ 64 µg/mL) | MIC [6]: 0.707 µM (≈ 2 µg/mL) | MIC [20]: 4 µM (≈ 11.3 µg/mL) | MIC [29]: 1.41 µM (≈ 4 µg/mL) | MIC [30]: 2.83 µM (≈ 8 µg/mL) | MIC [31]: 1.41 µM (≈ 4 µg/mL) | MIC [7]: 1.77 µM (≈ 5 µg/mL) | MIC [8]: 1.06 µM (≈ 3 µg/mL) | MIC [10]: 1.41 µM (≈ 4 µg/mL)

CC[C@H](C)[C@H](NC(=O)[C@H](CCCN=C(N)N)NC(=O)[C@H](CCC(N)=O)NC(=O)[C@@H](NC(=O)[C@@H](NC(=O)[C@@H](N)CCCN=C(N)N)[C@@H](C)CC)C(C)C)C(=O)N[C@@H](CCCCN)C(=O)N[C@@H](CCCCN)C(=O)N[C@@H](Cc1c[nH]c2ccccc12)C(=O)N[C@@H](CC(C)C)C(N)=O [RIVQRIKKWL]
MIC [32]: ≥ 128 µM | MIC [33]: ≥ 32 µM | MIC [34]: ≥ 256 µM | MIC [35]: ≥ 64 µM | MIC [36]: 16 µM (≈ 21.4 µg/mL)

CC[C@H](C)[C@H](NC(=O)[C@H](C)NC(=O)CNC(=O)[C@H](CCCCN)NC(=O)[C@H](CCC(=O)O)NC(=O)[C@H](CCC(=O)O)NC(=O)[C@H](CC(=O)O)NC(=O)[C@H](CCC(=O)O)NC(=O)[C@H](CC(=O)O)NC(=O)[C@H](CCCN=C(N)N)NC(=O)CNC(=O)[C@H](CCC(N)=O)NC(=O)[C@H](CC(C)C)NC(=O)[C@H](CCCCN)NC(=O)[C@H](CC(=O)O)NC(=O)[C@@H](NC(=O)[C@@H](NC(=O)[C@H](Cc1cnc[nH]1)NC(=O)[C@H](CCCN=C(N)N)NC(=O)[C@H](CC(N)=O)NC(=O)[C@@H](N)C(C)C)[C@@H](C)CC)C(C)C)C(=O)N[C@H](C(=O)N[C@@H](CCCCN)C(=O)N[C@H](C(=O)N[C@@H](CCCCN)C(=O)NCC(=O)NCC(=O)N[C@@H](CC(C)C)C(=O)O)C(C)C)C(C)C [VNRHIVDKLQGRDEDEEKGAIVKVKGGL]
MIC [37]: ≥ 500 µM | MIC [38]: ≥ 500 µM
